# Test results reported in patent publication US9616006B2, “Methods and compositions for treating dermatological diseases and conditions” (priority 2007, dated 2017).
# Tests used:
# collagen 1 mRNA = experiment: Collagen mRNA in fibroblasts by RT-PCR; type: cell-based, human; conditions: fibroblast cell cultures treated 72 hours
# Source text: (§1) The presently claimed and disclosed inventive concept(s) further contemplates use of various DHE, IE and EV compositions and salts, esters, ethers, and derivatives thereof to mitigate the effects of aging on the skin. For all aging studies, normal human fibroblast cell cultures were used. These cells normally produce collagen, elastin and hyaluronic acid. As the skin ages, the fibroblasts in the dermis lose their ability to produce these three key components of skin, and the skin consequently loses elasticity, thickness and smooth texture. In addition, as fibroblasts age, they increase the expression of certain enzymes that destroy collagen and elastin. There are about 13 of these enzymes, collectively referred to as MMPs (matrix metalloproteinases). One of the principal MMPs, MMP-1, is responsible for collagen degradation. […] Fibroblast cell cultures were treated with either IE, DHE or EV for 72 hours at which time the amount of collagen mRNA present in the cells was determined.
# elastin mRNA = experiment: Elastin mRNA in human dermal fibroblasts by RT-PCR; type: cell-based; conditions: 72 hours
# Source text: as §1, with “In addition, as fibroblasts age, they increase the expression of certain enzymes that destroy collagen and elastin.” left out, “The image is from an electrophoresis gel of DNA amplified by PCR from fibroblast mRNA. This gel was analyzed and” for “Fibroblast cell cultures were treated with either IE, DHE or EV for 72 hours at which time”, “density” for “amount”, “each band quantified by image analysis software.” for “collagen mRNA present in the cells was determined.”
# [1] = system: HAS-2 (Hyaluronic acid synthase-2); experiment: HAS-2 mRNA in fibroblasts by RT-PCR; type: cell-based, human; conditions: 72 hours
# Source text: (§2) The presently claimed and disclosed inventive concept(s) further contemplates use of various DHE, IE and EV compositions and salts, esters, ethers, and derivatives thereof to mitigate the effects of aging on the skin. For all aging studies, normal human fibroblast cell cultures were used. These cells normally produce collagen, elastin and hyaluronic acid. As the skin ages, the fibroblasts in the dermis lose their ability to produce these three key components of skin, and the skin consequently loses elasticity, thickness and smooth texture. In addition, as fibroblasts age, they increase the expression of certain enzymes that destroy collagen and elastin. There are about 13 of these enzymes, collectively referred to as MMPs (matrix metalloproteinases). One of the principal MMPs, MMP-1, is responsible for collagen degradation. For experiments herein to determine the effects of DHE, IE and EV on collagen, elastin and hyaluronic acid, fibroblasts were treated with the compounds for 72 hours, mRNA was then isolated, and analyzed for abundance by RT-PCR (Reverse transcriptase-Polymerase Chain Reaction).
# DHE, IE and EV, are also shown herein to stimulate mRNA for HAS-2. HAS-2 (Hyaluronic acid synthase-2) is the enzyme that manufactures hyaluronic acid (HA) in the skin. HA is a glycosaminoglycan important for maintaining moisture and suppleness in the skin. […] As the skin ages, the production of HA decreases and this causes the skin to sag and become thin.
# TIMP-1 = TIMP-1 mRNA in fibroblasts by PCR; type: cell-based, human
# Source text: as §2
# Fibroblasts in the skin not only produce enzymes (MMPs) that destroy the skin matrix but they also produce proteins (Tissue Inhibitors of Metalloproteinases, i.e., TIMPS) that inhibit these enzymes. There are several TIMPs, but one that is most important for inhibiting MMPs is TIMP-1. […] Shown in FIG. 11 is PCR data showing the up-regulation of TIMP-1 mRNA by these compounds.
# [2] = system: MMP-1, MMP-3, MMP-8, MMP-9 MMP-10 and MMP-13; experiment: MMP protein abundance in human dermal fibroblasts (protein array blotting); type: cell-based
# Source text: As mentioned above, as fibroblasts age they increase their production of MMP enzymes that destroy collagen and elastin, particularly collagenase, MMP-1. We utilized a protein array blotting technique to determine the effect of DHE, IE and EV on the protein abundance of these enzymes. As shown below, EV is able to reduce the level of several MMPs in human dermal fibroblasts, including MMP-1, MMP-3, MMP-8, MMP-9 MMP-10 and MMP-13 (FIG. 12). This remarkable effect makes this compound an ideal addition to an anti-aging product since MMP levels in aging skin are quite high.
# [3] = type: physicochemical; conditions: water-oil emulsion
# Procedure: This surprising and unexpected finding meant that it was necessary to identify a carrier/vehicle system that would accommodate EV in a soluble form and at the same time maintain its chemical stability (defined herein as at least 95% of the ethyl vanillin remaining chemically intact for at least 3 months). In one formulation contemplated herein, EV is dissolved in caprylic/capric triglyceride or other fatty acid triglyceride and then mixed into a silicone fluid wherein the silicone is the primary (greatest percentage) component of the formulation. The cosmetic silicone fluid used in this embodiment accepts the caprylic/capric triglyceride and allows the EV to remain in solution. […] Therefore, the presently claimed and disclosed inventive concept(s) contemplates formulations of EV in non-aqueous solutions, particularly comprising at least 20% to 25% to 30% to 35% to 40% to 45% to 50%, or up to 60%, 70%, 80% or 90% silicone thereby explicitly excluding water-in-oil, or oil-in-water, emulsions. Additionally, besides caprylic capric triglyceride, EV can be solubilized in jojoba oil, sunflower oil or squalane or any other solubilizer which is accepted by the silicones. […]
smiles,measurement,setting,value
"CCOc1cc(C=O)ccc1O [EV, ethyl vanillin]",collagen production (collagen mRNA),collagen 1 mRNA,stimulation
same,elastin levels (elastin mRNA),elastin mRNA,increase
same,mRNA for HAS-2,[1],stimulate
same,production of TIMP-1 (TIMP-1 mRNA),TIMP-1,significantly stimulate
same,level of several MMPs (protein abundance),[2],reduce
same,time within which EV significantly decomposes,[3],24 to 48 h
